Experimental data from patent US20170056351A1, “COMPOSITION FOR INDUCING TUMOR IMMUNITY” (UNIVERSITY OF OCCUPATIONAL AND ENVIRONMENTAL HEALTH, JAPAN, priority 2014, published 2017).

Tests used:
U251 cells [1] = test: Intracellular localization of ROS 12 hours after ionizing radiation (DCFD, confocal laser scanning microscope), U251; assay type: cell-based, human; conditions: pre-treatment with 1 mM 5-ALA 4 hours before 10 Gy, 12 hours after irradiation, vs no 5-ALA
Experimental: Intracellular ROS production was detected by our method using DCFD and a confocal laser scanning microscope (LMS5 Pascal; Carl Zeiss, Jena, Germany) (Yamamoto J, Ogura S, Tanaka T, et al: Radiosensitizing effect of 5-aminolevulinic acid-induced protoporphyrin IX in glioma cells in vitro. Oncol Rep 27: 1748-1752, 2012.). Briefly, the cells were seeded in a fresh medium containing 1 mM 5-ALA in a 35-mm glass-bottom culture dish (Asahi Techno Glass, Tokyo, Japan), and were then incubated at 37° C. for 4 hours in a dark room. Thereafter, the cells were washed with PBS, and were then exposed to an ionizing radiation of 10 Gy. Twelve hours after the ionizing irradiation, the cells were washed with PBS twice, and were then incubated together with 10 μM DCFD for 15 minutes. Thereafter, the cells were washed with PBS twice, and immediately after the washing, the resulting cells were observed. DCFD fluorescence (excitation: 488 nm; radiation: 505-530 nm band-pass filter) was imaged on a confocal laser scanning microscope. All procedures were carried out in a dark room.

9L cells = test: Cellular ROS levels after ionizing irradiation (DCFD, flow cytometry), 9L; assay type: cell-based, rat; conditions: for relative MFI of DCF fluorescence 12 hours after ionizing irradiation, timing study: 10 Gy
Experimental: (§1) Intracellular ROS production was evaluated using the oxidant-sensitive fluorescence probe DCFD and flow cytometry (Yamamori T, Yasui H, Yamazumi M, et al: Ionizing radiation induces mitochondrial reactive oxygen species production accompanied by upregulation of mitochondrial electron transport chain function and mitochondrial content under control of the cell cycle checkpoint. Free Radic Biol Med 53: 260-270, 2012.). The cells were seeded on a 100-mm culture dish, and using an X-ray irradiation apparatus (MBR-1520R; Hitachi, Tokyo, Japan) (0.67 Gy/min), the cells were then irradiated with a radiation of 10 Gy in a dark room. During the ionizing irradiation, the culture dish was maintained at a room temperature in a dark container. In the case of a 5-ALA and ionizing irradiation group (RT,12 h+ALA), the cells were treated with 1 mM 5-ALA for 4 hours, then, immediately after the treatment, the cells were irradiated with ionizing radiation, and were then incubated together with 10 μM DCFD at 37° C. for 15 minutes, followed by washing with PBS twice. Thereafter, as described above, the cells were analyzed using a flow cytometer (excitation: 488 nm; radiation: 525/50 nm band-pass filter). Control cells were not exposed to ionizing radiation or 5-ALA. In a 5-ALA group, the cells were treated with 1 mM 5-ALA for 4 hours, but were not exposed to ionizing radiation. The control cells and the cells of the 5-ALA group were treated with DCFD in the same manner as described above. In order to prevent the photoactivation of 5-ALA-induced PpIX and DCFD, all procedures were carried out in a dark room. The flow cytometric data were analyzed using FlowJo (Tree Star Inc., Ashland, Oreg., USA). The MFI of the DCF fluorescence in the cells, with respect to that in control cells, was calculated for each cell line.
(§2) The cells were seeded on a 100-mm culture dish, and were then exposed to an ionizing radiation of 10 Gy. The incubation time (4 h) of 1 mM 5-ALA was the same among individual groups, and three types of 5-ALA treatment times were initiated: i) 5-ALA treatment immediately before ionizing irradiation [RT+ALA (pre) group]; ii) 5-ALA treatment immediately after ionizing irradiation [RT+ALA (4 h) group]; and iii) 5-ALA treatment 8 hours after ionizing irradiation [RT+ALA (12 h) group]. In each group, twelve hours after the ionizing irradiation, the cells were incubated together with 10 μM DCFD at 37° C. for 15 minutes, and were then washed with PBS twice. Immediately after the washing, as described above, DCF fluorescence was analyzed using a flow cytometer. Control cells were not treated with ionizing radiation or 5-ALA. In a group involving only ionizing irradiation (RT), the cells were exposed to ionizing radiation, without performing 5-ALA treatments, and were then treated with DCFD twelve hours after the exposure to the ionizing radiation in the same manner as described above. All procedures were carried out in a dark room. The flow cytometric data were analyzed using FlowJo software. The MFI of the DCF fluorescence in the cells, with respect to that in control cells, was calculated for each cell line.

U251 cells [2] = test: Cellular ROS levels after ionizing irradiation (DCFD, flow cytometry), U251; assay type: cell-based, human; conditions: for relative MFI of DCF fluorescence 12 hours after ionizing irradiation, timing study: 10 Gy
Experimental: as §1, §2

C6 cells = test: Intracellular level of 5-ALA-induced PpIX by flow cytometric analysis, C6; assay type: cell-based, rat; conditions: 1 mM 5-ALA for 4 hours, relative to 5-ALA-not-treated cells, average±SE
Experimental: Two types of rat glioma cell lines (9L and C6) and human glioma cell lines (U251 and T98G) were used. Before use, 9L and T98G were cultured in RPMI-1640 at 37° C. for several days, whereas C6 and U251 were cultured in 10% FBS-added Dulbecco's modified Eagle's medium (DMEM) at 37° C. for several days. These cell lines were maintained at 37° C. in 5% CO2 in a humidified incubator. The cells were subcultured at an exponential growth phase thereof, using 0.05% trypsin solution containing 0.5 mM ethylenediamine tetraacetate. 70% confluent cells were used in the subsequent experiments. […]
The cells were seeded on a 100-mm culture dish, and were then cultured. […] Immediately after the recovery, the cells were re-suspended in cold PBS/FBS, and were then analyzed using a flow cytometer (EC800; Sony Biotechnology, Tokyo, Japan). Generally, 30,000 cells contained in each sample were evaluated. Using 488-nm argon ion laser, fluorescence was excited from intracellular PpIX, and the fluorescence was then detected using a 640/30 nm band-pass filter. […] The flow cytometric data were analyzed using FlowJo (Tree Star Inc., Ashland, Oreg., USA). The mean fluorescence intensity (MFI) of PpIX fluorescence in the 5-ALA-treated cells, with respect to that of 5-ALA-not-treated cells, was calculated for each cell line.

[3] = 1 mM 5-ALA 4 hours, without ionizing irradiation, relative to control cells, average±SE
[4] = 5-ALA treatment 8 hours after ionizing irradiation, RT+ALA (12 h) group
[5] = 5-ALA treatment immediately after ionizing irradiation, RT+ALA (4 h) group
[6] = 5-ALA treatment immediately before ionizing irradiation, RT+ALA (pre) group

Compound: NCC(=O)CCC(=O)O [ALA, 5-aminolevulinic acid]
- DCF fluorescence in the cytoplasm (confocal) (U251 cells [1]): apparently increased
- relative MFI of DCF fluorescence (cellular ROS) (9L cells; [3]): 1.19±0.07
- relative MFI of DCF fluorescence 12 hours after ionizing irradiation, timing study (9L cells; [4]): 1.58±0.11
- relative MFI of DCF fluorescence 12 hours after ionizing irradiation, timing study (9L cells; [5]): 1.57±0.05
- relative MFI of DCF fluorescence 12 hours after ionizing irradiation, timing study (9L cells; [6]): 1.93±0.10
- relative MFI of DCF fluorescence (cellular ROS) (9L cells; 12 hours after 10 Gy ionizing irradiation with 5-ALA pre-treatment (1 mM, 4 hours), p=0.009 vs RT 12 h): 1.91±0.19
- relative MFI of DCF fluorescence (cellular ROS) (U251 cells [2]; [3]): 0.87±0.06
- relative MFI of DCF fluorescence 12 hours after ionizing irradiation, timing study (U251 cells [2]; [4]): 1.38±0.05
- relative MFI of DCF fluorescence 12 hours after ionizing irradiation, timing study (U251 cells [2]; [5]): 1.43±0.02
- relative MFI of DCF fluorescence 12 hours after ionizing irradiation, timing study (U251 cells [2]; [6]): 1.44±0.02
- relative MFI of DCF fluorescence (cellular ROS) (U251 cells [2]; 12 hours after 10 Gy ionizing irradiation with 5-ALA pre-treatment (1 mM, 4 hours), p=0.031 vs RT 12 h): 1.51±0.10
- relative MFI of PpIX fluorescence (C6 cells): 20.2±0.56
